{
  "source": "patent US8563516B2",
  "about": "“Foxp3 peptide vaccine” (OncoTherapy Science, Inc., priority 2007, dated 2013)",
  "key": {"[1]": {"test_system": "4T1 breast cancer cells", "assay": "In vivo antitumor effects of vaccination, 4T1 tumor", "set-up": "species or system BALB/c mice", "details": "4T1 s.c. day 0, vaccination day 3 and 10, compared with control mice, FIG. 6", "description": "1×10^5 4T1 breast cancer cell lines were injected into BALB/c mice on day 0. IFA-conjugated with Foxp3-252_h (-open circle-), Foxp3-252_m (-solid square-), no peptide (-solid triangle-) was injected on day 3 and 10. As control of normal tumor growth, non-vaccinated mice (-x-) were also prepared in this assay.\n4T1 cells (1×10^5 per mouse) were injected s.c. into the right flank of BALB/c mice on day 0. Vaccination was done on days 3 and 10 using hFoxp3-252 (KLSAMQAHL: SEQ ID NO: 17) or mFoxp3-252 (KLGAMQAHL: SEQ ID NO: […]) IFA-conjugated peptides.\nTo examine the antitumor effects with peptide vaccination targeted Foxp3, in vivo therapeutic setting was attempted by using 4T1 tumor cells and BALB/c mice. The 4T1 breast cancer cells were injected s.c. into BALB/c mice on day 0, and then vaccination was done on these mice 3 and 10 days after the tumor challenge."}, "[2]": {"test_system": "293T that transfected both Foxp3 and HLA-A02", "assay": "Specific CTL activity against target cells expressing Foxp3 and HLA-A02", "format": "cell-based, human", "description": "(§1) To examine the specific CTL activity, IFN-gamma ELISPOT assay and IFN-gamma ELISA were performed. Briefly, peptide-pulsed A24-LCL, T2 cell (1×10^4/well) or the cells endogenously expressing Foxp3 and HLA molecule was prepared as a stimulator cells. Cultured CTL lines in 48 wells were used as a responder cells. IFN-gamma ELISPOT assay and IFN-gamma ELISA were performed under manufacture procedure.\n(§2) The established CTL clone raised against these peptides were examined for their ability to recognize the target cells endogenously expressing Foxp3 and HLA-A*24 or 02. Specific CTL activity against 293T transfected both full length of Foxp3 gene and HLA-A*24 or 02 molecule, which is specific model for the target cells endogenously express Foxp3 and HLA-A*24 or 02, was tested using the CTL lines raised by Foxp3-A02-9-390 (SEQ ID NO: 15) and Foxp3-A02-9-252 (SEQ ID NO: 17) as effector cells. […] Furthermore, these peptides were epitope peptides, which can utilize vaccine targeting Foxp3 expressed T-regs."}, "[3]": {"test_system": "peptide-pulsed T2 cells", "assay": "IFN-gamma ELISA on expanded CTL lines, HLA-A02 peptides", "format": "cell-based, human", "details": "expanded cells of positive wells, FIG. 3A-D, 3F", "description": "CTLs were expanded in culture using a similar method as reported by Riddell, et al. (Walter et al., N Engl J Med 333(16): 1038-44, 1995; Riddell et al., Nat Med 2(2): 216-23, 1996 February). A total of 5×10^4 CTLs were resuspended in 25 ml of AIM-V/5% AS with 2 kinds of human B-lymphoblastoid cell lines, inactivated with MMC, in the presence of 40 ng/ml of anti-CD3 monoclonal antibody (Pharmingen). One day after initiating the cultures, 120 IU/ml of IL-2 were added to the cultures. The cultures were fed with fresh AIM-V/5% AS containing 30 IU/ml of IL-2 on days 5, 8 and 11.\nas §1\nThese cells in the positive wells were expanded and performed IFN-gamma ELISA assay."}, "[4]": {"test_system": "293T that transfected both Foxp3 and HLA-A24", "assay": "Specific CTL activity against target cells expressing Foxp3 and HLA-A24", "format": "cell-based, human", "description": "as §1, §2"}, "[5]": {"test_system": "BALB/c mice", "assay": "Immunogenicity of epitope peptides in BALB/c mice (IFN-gamma ELISPOT on splenocytes)", "format": "in vivo", "description": "IFA-conjugated peptide or IFA only were injected s.c. into BALB/c mice on day 0 and 7. On day 14, splenocytes of vaccinated mice were harvested and used as responder cells. 1×10^4 RLmale1 cells pulsed corresponding peptide (solid square), or no peptide (open square) were used as stimulator cells for IFN-gamma ELISPOT assay. Vaccination using Foxp3-252_h (A) and Foxp3-252_m (B) were performed into five mice (M1-M5) and IFA without any peptide injection were performed into three mice (N1-N3) as control in each assay.\nFor priming the peptide-specific CTLs, immunization was given using 100 mcl vaccine mixture, which contains 50 mcl HLA-A24 restricted peptide and 50 mcl IFA per mouse. The vaccine was injected s.c. into the right flank of mice for the first immunization on day 0 and in the left flank for the second on the day 7. On day 14, splenocytes from vaccinated mice were used as the responder cells, and RLmale1 cells pulsed with or without peptides were used as the stimulator cells for IFN-gamma ELISPOT assay.\nTo evaluate the immunogenicity of Foxp3-9-252 peptide for BALB/c mice, immunization with human Foxp3-9-252 peptide (Foxp3-252_h; KLSAMQAHL)(SEQ ID NO: 17) and mouse Foxp3-9-252 peptide (Foxp3-252_m; KLGAMQAHL) (SEQ ID NO: 89) were performed, respectively. After second injection of peptide, peptide specific CTL activity was determined by IFN-gamma ELISPOT assay (FIG. 5)."}},
  "note": "Entries after “also recorded” stand apart in the source; their conditions may differ.",
  "data": [
    {"sequence": "KLSAMQAHL (peptide vaccine) [SEQ ID NO 17]", "values": [
      {"measurement": "tumor growth / antitumor effect", "setting": "[1]; listed as Foxp3-252_h", "result": "tumor growth apparently reduced; also recorded: Significant difference of tumor growth suppression"},
      {"measurement": "tumor growth / antitumor effect", "setting": "[1]; listed as hFoxp3-252", "result": "obviously anti-tumor effects; also recorded: superior to mFoxp3-252 peptide"},
      {"measurement": "specific CTL activity of CTL lines raised by peptide", "setting": "[2]; against 293T transfected with both Foxp3 and HLA-A02, FIG. 4A/4B", "result": "high specific CTL activity"},
      {"measurement": "specific CTL activity against controls", "setting": "[2]; controls of FIG. 4A/4B", "result": "did not show significant specific CTL activity"},
      {"measurement": "IFN-gamma production of CTL lines stimulated with peptide, compared with the control", "setting": "[3]", "result": "potent IFN-gamma production"},
      {"measurement": "specific CTL activity of CTL lines raised by peptide", "setting": "[4]; against 293T transfected with both Foxp3 and HLA-A24, FIG. 4C", "result": "high specific CTL activity"},
      {"measurement": "specific CTL activity against controls", "setting": "[4]; controls of FIG. 4C", "result": "did not show significant specific CTL activity"},
      {"measurement": "mice with peptide specific CTL response", "setting": "[5]; IFA-conjugated peptide s.c. day 0 and 7, splenocytes day 14, RLmale1 stimulator cells, FIG. 5", "result": "three of five"},
      {"measurement": "induction of epitope specific CTLs in vivo", "setting": "[5]; vaccination of BALB/c mice, discussion, listed as hFoxp3-252", "result": "could induce epitope specific CTLs in vivo; also recorded: superior to mFoxp3-252 peptide"}
    ]}
  ]
}
